Test results taken from patent US20210153516A1, “COMPOSITION AND METHOD OF TREATING PLANTS AND PLANT PARTS WITH VOLATILE SPOILAGE ORGANISM CONTROLLING ACTIVES” (AGROFRESH INC., priority 2019, published 2021).

What was measured:
B. cinerea [1] = assay: B. cinerea infection assessment for strawberries after dipping treatment; format: in vivo, Botrytis cinerea
Method: The experiment was conducted by 1) preparing a dipping treatment solution by dissolving volatile compound into 20% v/v isopropanol water solution to achieve 10 ppm concentration, 2) pre-inoculate all the strawberries before treatment, 3) dipping strawberries in the prepared solution for 30 seconds, 4) storing the strawberries under refrigerated conditions and at room temperature to incubate for disease observations. B. cinerea infection was assessed at 3 and 5 days incubation time for both untreated strawberries in isolation and untreated strawberries placed adjacent to the treated strawberries.

B. cinerea [2] = assay: B. cinerea infection assessment for blueberries after thermal fogging (Example 4); format: in vivo, Botrytis cinerea
Method: (§1) The experiment was conducted by 1) setting up a 4.3 m^3 rectangular plastic tent, 2) placing blueberries in open clamshells in the tent, 3) preparing a foggable formulation by dissolving volatile compound into a solvent mixture containing 50% w/w propylene glycol, 47.8% w/w isopropyl alcohol, 2% w/w sorbitan mono-oleate, and 0.2% of citric acid to achieve about 10% w/w volatile compound, 4) inoculating the blueberries before treatment, 5) applying the formulation through a thermal fogger with set temperature at 200° C. and flow rate of about 70 ml/min, and target use rate of 10 mg active ingredient per kg of blueberries, and 6) storing the blueberries under refrigerated condition of about 4° C. after treatment, and at room temperature to incubate for observation of disease infections.
B. cinerea infection was assessed at 13, 16, and 24 days incubation time under room temperature shelf life conditions for both untreated blueberry in isolation, untreated blueberry placed adjacent to the treated blueberry six days after the treatment, and the treated blueberries.

[3] = system: B. cinerea (Botrytis cinerea or Gray mold); assay: B. cinerea infection assessment for blueberries after thermal fogging (Example 3); format: in vivo; details: untreated blueberries placed adjacent to treated blueberries one day after treatment, 10 mg active ingredient per kg
Method: as §1
B. cinerea (Botrytis cinerea or Gray mold) infection was assessed at 4 and 13 days incubation time for both untreated blueberries in isolation and untreated blueberries placed adjacent to the treated blueberries one day after the treatment.

[4] = system: Penicillium digitatum (Green mold) and Penicillium italicum (Blue mold); assay: Green mold and Blue mold infection assessment for mandarins after spray treatment; format: in vivo; details: equally mixed mandarins of untreated and treated (spray 60 ml treatment solution per box); 10 days incubation at room temperature
Method: The experiment was conducted by 1) preparing a spray treatment solution by diluting […] concentrated formulation containing 10% w/w volatile compound, 45% w/w propylene glycol, 43.02% w/w isopropanol, 1.8% w/w sorbitan mono-oleate, 0.18% w/w citric acid into 1 L water, 2) spraying a box of mandarins with the use rate of 60 ml treatment solution per box, 3) after air drying of the mandarins, preparing a box of mandarins containing 50% untreated mandarins and 50% treated mandarins, 4) storing the mandarins under 3-5° C. refrigerated conditions for 7 days, and then storing at room temperature with high humidity to incubate for disease observations. Penicillium Digitatum (Green mold) and Penicillium italicum (Blue mold) infection incidence of the mandarins was assessed at 10 days incubation time under room temperature shelf life conditions for both untreated mandarins in isolation and equally mixed untreated and treated mandarins to simulate uneven spray treatment applications.

[5] = system: Penicillium digitatum (Green mold) and Penicillium italicum (Blue mold); assay: Green mold and Blue mold infection assessment for mandarins after dipping treatment; format: in vivo; details: equally mixed mandarins of untreated and treated (dip about 60 seconds); 10 days incubation at room temperature
Method: The experiment was conducted by 1) preparing a dipping treatment solution by diluting 360 ml concentrated formulation containing 10% w/w volatile compound, 45% w/w propylene glycol, 43.02% w/w isopropanol, 1.8% w/w sorbitan mono-oleate, 0.18% w/w citric acid into 60 L water, 2) dipping a box of mandarins into the treatment solution bath for about 60 seconds, 3) after air drying of the mandarins, preparing a box of mandarins containing 50% untreated mandarins and 50% treated mandarins, 4) storing the mandarins under 3-5° C. refrigerated conditions for 7 days, and then storing at room temperature with high humidity to incubate for disease observations. Penicillium digitatum (Green mold) and Penicillium italicum (Blue mold) infection incidence of the mandarins was assessed at 10 days incubation time under room temperature shelf life conditions for both untreated mandarins in isolation and equally mixed untreated and treated mandarins to simulate uneven drench or dip treatment applications.

[6] = treated blueberries, thermal fogging 10 mg active ingredient per kg, 13 days incubation
[7] = treated blueberries, thermal fogging 10 mg active ingredient per kg, 16 days incubation
[8] = treated blueberries, thermal fogging 10 mg active ingredient per kg, 24 days incubation
[9] = untreated blueberries placed adjacent to treated blueberries 6 days after treatment, 13 days incubation
[10] = untreated blueberries placed adjacent to treated blueberries 6 days after treatment, 16 days incubation
[11] = untreated blueberries placed adjacent to treated blueberries 6 days after treatment, 24 days incubation

How did the B. cinerea severity (B. cinerea [1]; treated strawberries, dipped 30 seconds in 10 ppm solution, 3 days incubation) turn out when `OB1OCc2cc(F)ccc21` [5-fluoro-1-hydroxy-3H-2,1-benzoxaborole] was run?
Its B. cinerea severity is 0.0%.

What about the B. cinerea severity (B. cinerea [1]; treated strawberries, dipped 30 seconds in 10 ppm solution, 5 days incubation) of the same compound?
The B. cinerea severity was 0.0%.

What about the B. cinerea severity (B. cinerea [1]; untreated strawberries placed adjacent to treated strawberries, 3 days incubation) of the same compound?
The B. cinerea severity was 5.4%.

And the B. cinerea severity (B. cinerea [1]; untreated strawberries placed adjacent to treated strawberries, 5 days incubation)?
Its B. cinerea severity is 43.8%.

What about the B. cinerea incidence (B. cinerea [2]; [6]) of the same compound?
The B. cinerea incidence was 2.8%.

And the B. cinerea severity (B. cinerea [2]; [6])?
The B. cinerea severity was 1.1%.

And the B. cinerea incidence (B. cinerea [2]; [7])?
Its B. cinerea incidence is 2.8%.

What about the B. cinerea severity (B. cinerea [2]; [7]) of the same compound?
Its B. cinerea severity is 1.1%.

What about the B. cinerea incidence (B. cinerea [2]; [8]) of the same compound?
Its B. cinerea incidence is 5.6%.

And the B. cinerea severity (B. cinerea [2]; [8])?
The B. cinerea severity was 3.3%.

What about the B. cinerea incidence (B. cinerea [2]; [9]) of the same compound?
The B. cinerea incidence was 16.7%.

What about the B. cinerea severity (B. cinerea [2]; [9]) of the same compound?
Its B. cinerea severity is 4.7%.

And the B. cinerea incidence (B. cinerea [2]; [10])?
Its B. cinerea incidence is 23.0%.

What about the B. cinerea severity (B. cinerea [2]; [10]) of the same compound?
The B. cinerea severity was 6.2%.

What about the B. cinerea incidence (B. cinerea [2]; [11]) of the same compound?
The B. cinerea incidence was 33.3%.

And the B. cinerea severity (B. cinerea [2]; [11])?
The B. cinerea severity was 15.0%.

And the B. cinerea incidence ([3]; 4 days incubation)?
The B. cinerea incidence was 2.6%.

What about the B. cinerea severity ([3]; 4 days incubation) of the same compound?
The B. cinerea severity was 0.2%.

What about the B. cinerea incidence ([3]; 13 days incubation) of the same compound?
Its B. cinerea incidence is 19.2%.

What about the B. cinerea severity ([3]; 13 days incubation) of the same compound?
The B. cinerea severity was 10.6%.

And the “Green and Gray molds incidence” value [4]?
The value was 0.64%.

And the “Green and Blue mold incidence” value [5]?
Its value is 4.1%.
